A melting point compilation (Tetko et al.; mined from patent text by program, amines drawn as free bases though some values may be those of a salt)

| SMILES | melting point [°C] |
| --- | --- |
| CC(C)N1C(=O)c2cnc(-c3ccccc3)nc2Nc2ccccc21 | 195 to 196 |
| OCCc1ccc(Cl)cc1CO | 75 to 76 |
| Cn1c(=O)nc(-c2ccccc2)c2cc([N+](=O)[O-])ccc21 | 261 to 264 |
| CSCC[C@H](NC(=O)OC(C)(C)C)C(=O)NCC(=O)Oc1c(Cl)c(Cl)c(Cl)c(Cl)c1Cl | 169 to 171 |
| O=C1CCCc2ccc(Nc3ncc(Cl)c(Nc4ccccc4S(=O)(=O)N4CCCC4)n3)cc2N1 | 249 to 251 |
| COc1ccc2c(c1)c(-c1[nH]c3ncccc3c1C)cn2C | 237 |
| NC(=O)N1C(=O)C(C(=O)c2cccs2)c2cc(Cl)ncc21 (stereo unspecified) | 252 |
| CCOC(Cc1ccc(OCCN2CCSc3ccccc32)cc1)C(=O)O (single isomer, unassigned; (-)) | 110 |
| COc1ccnc(CSc2nc3c(C(F)(F)F)cccc3[nH]2)c1 | 146 |
| COc1ncccc1Cc1cc2cccc(-c3cccc(C(=O)NCCO)c3)c2s1 | 121 to 122 |
| O=C(O)c1ccccc1C(=O)Nc1ccc2c(=O)n3c(nc2c1)C(=Cc1ccccc1)CC3 | > 300 |
| O=C(C=Cc1ccc(Cl)c(Cl)c1)C1C(=O)CCC1=O | 190 to 191 |
| CCOc1cc(CCl)cc(OCc2nc(-c3ccccc3)oc2C)c1 | 86 to 87 |
| CC(C)n1nc(-c2c(-c3ccccc3)nn3ccc(OCCN4CCCC4=O)cc23)ccc1=O | 162 to 163 |
| O=c1c2ccc3cc[nH]c3c2ccn1Cc1ccccc1 | 211 to 213 |
| O=S1(=O)N=CNc2ccc(F)cc21 | 260 to 263 |
| COC(=O)c1cc2ccoc2nc1C1=NC(C)(C(C)C)C(=O)N1 (stereo unspecified) | 134 to 137 |
| CC(=O)NCC1CCN(CCOc2ccccc2)CC1 | 79 to 80 |
| CCN(CC)C(=O)N1CCc2ccc(S(=O)(=O)NC(=O)NC3CCCCC3)cc2CC1 | 168 to 169 |
| COC(=O)C1=C(C)Nc2nc(N3CCOCC3)nc(N3CCOCC3)c2C1c1cccc([N+](=O)[O-])c1 (stereo unspecified) | 165 |
| CC(C)=CCc1cc2cc(-c3cc(O)cc(O)c3)oc2cc1O | 183 to 184 |
| CCOC(=O)[C@@H]1OC(c2ccc(O)c(OCC)c2)O[C@H]1C(=O)OCC | 78 to 80 |
| CS(=O)(=O)n1c2cc(O)c(O)cc2c2cc(O)c(O)cc21 | 278 to 280 |
| FC(F)(F)c1cccc(OCc2ccc3ccccc3n2)c1 | 77 to 78 |
| COC(=O)c1cc(-c2ccc(OC)c(Cl)c2)nn(CC=Cc2ccc(Cl)cc2)c1=O | 180 to 182 |
| COC(=O)COc1cc2c(c(Cl)c1Cl)C(=O)C(c1ccccc1)C2 (stereo unspecified) | 152 to 153 |

| SMILES | melting point [°C] |
| --- | --- |
| O=c1nc(-c2cccc(Cl)c2)c2cc(C(c3ccc(Cl)cc3)n3ccnc3-c3ccccc3)ccc2[nH]1 (stereo unspecified) | 170 |
| CC[C@H]1CN(c2c(F)cc3c(=O)c(C(=O)O)cn(C4CC4)c3c2C)C[C@H]1N | 148 to 150 |
| O=C1OC(c2ccccc2)=CC1=Cc1cccs1 | 141 |
| O=C(CCc1ccc(S(=O)(=O)N(C(=O)c2c3ccccc3nc3ccccc23)c2ccc3c(c2)OCCO3)cc1)ON1C(=O)CCC1=O | 140 |
| CCOC(=O)c1c(C(F)(F)F)nsc1SC | 64 to 65 |
| COc1ccccc1COc1ccc(S(=O)(=O)c2ccc(C)nc2Nc2cc(OC)c(OC)cc2C)cc1 | 62 to 66 |
| COC(=O)/C=C\C(=O)Nc1ccc2c(=O)n3c(nc2c1)C(=Cc1ccccc1)CC3 | 233 to 235 |
| N#CCCC(C=O)(c1ccccc1)c1ccccc1 | 80 to 82 |
| Cc1ccc(S(=O)(=O)C#CBr)cc1 | 99 to 101 |
| N#CC(C#N)(Cc1ccc(Cl)cc1)C1CCCCC1 | 108 |
| CCc1[nH]n(C2CCCC2)c2nc(-c3cccc(OCCN4CCOCC4)c3)nc(=O)c1-2 | 173 to 176 |
| CC(C)(C)N[C@H](Cc1ccccc1)C(=O)O | 79 to 80 |
| COc1ccc(Cc2c(C(=O)O)n(CC3CC3)c3ccccc23)cc1 | 162 to 163 |
| C=CCN1CCCN(c2c(C)cccc2Cl)C1=S | 82 to 84 |
| COc1cccc(CNCc2ccc3nc(N)c4ncn(CC(C)C)c4c3c2)c1 | 125 to 126 |
| Cc1nccc2[nH]c(=O)c(O)cc12 | > 320 |
| CC(C)(C)c1cc(C(=O)c2c[nH]c(SC#N)c2SC#N)cc(C(C)(C)C)c1O | 143 to 144 |
| COc1ccc(N2CCN(c3c(C)c(C)c4c(c3C)C(C3CCCCC3)C(C)(C)O4)CC2)cc1 (stereo unspecified) | 119 to 121 |
| O=C1C=C(c2ccc(Cl)c(Cl)c2)C(=O)O1 | 112 |
| Cn1cc(C2=C(c3c4n(c5ccccc35)CCC(N=C=S)C4)C(=O)NC2=O)c2ccccc21 (stereo unspecified) | 285 to 287 |
| Cc1cnc2c(c1)S(=O)(=O)N(Cc1ccccc1)C2=O | 167 to 170 |
| O=C1CCc2ccc(O)c(c2)Oc2ccc(cc2)C=CCO1 | 148 to 151 |
| Cn1c(=O)c2c(nc(Cl)n2Cc2ccc(F)cc2)n(C)c1=O | 183 to 184 |
| C#CCOc1cccc(CCCCCCCCCCCCCCC)c1 | 26 to 27 |
| COc1ccc(Cc2ncc[nH]2)cc1 | 158 to 160 |
| Cc1cc(NC(=O)N(C)C)no1 | 150 to 152 |

| SMILES | melting point [°C] |
| --- | --- |
| O=C(O)CC1COc2cc(Cl)c(Cl)cc2O1 (stereo unspecified) | 145 to 147 |
| CC(C)c1nn(-c2ccc(Br)cn2)cc1CCCO | 96 to 97 |
| O=C(O)CN1C(=O)c2ccc(C(=O)O)cc2C1=O | 262 to 265 |
| COC(=O)c1cc2ccc(OC)cc2n1CCN1CCC(N)CC1 | 101 |
| O=C(NCC12CC3CC(CC(Cl)(C3)C1)C2)c1ccccc1Cl | 153 |
| CCCc1cc(OCC)c2c(c1OC)S(=O)(=O)N(CCl)C2=O | 131 to 133 |
| Cc1ccc(C(=O)Nc2cccc(C(F)(F)F)c2)cc1-c1ccc2ncsc2c1 | 102 to 104 |
| CC(=O)c1sc(N2CCN(CCC3CC3)C2=O)nc1C | 82 to 83 |
| CC1(C)CC(=O)c2c(Cc3ccccc3)cn(-c3ccccn3)c2C1 | 111 to 113 |
| Cc1nc(O)sc1CCCl | 151 to 152 |
| O=C(O)c1cn(C2CC2)c2c(F)c(-n3cnc(-c4ccccc4)c3)c(F)cc2c1=O | 286 to 288 |
| CCOP(=O)(OCC)c1cc2c(c(C)c1-c1c(OC)ccc3ccccc13)COC2 | 136 to 138 |
| CCn1c(=O)n(CCCCC(C)=O)c(=O)c2cnn(C)c21 | 112 |
| COC(=C(OC)c1ccccc1OC)c1ccc(N)nn1 | 139 to 142 |
| CC(CN1CCC(C#N)C1)NC(=O)c1c[nH]c2ncc(-c3nn(C)c4cc(Cl)ccc34)nc12 (stereo unspecified) | 206 to 209 |
| CCOC(=O)c1c(O)cc(C(F)(F)F)nc1C(F)(F)F | 70 to 77 |
| CCOC(=O)c1cnc2cccc(O)c2c1 | 240 |
| N#CCc1ccc([N+](=O)[O-])c2[nH]ncc12 | 198 to 200 |
| CCN1CCCC1CNC(=O)c1cc(S(N)(=O)=O)c(OC)c2c1OCCO2 (stereo unspecified) | 110 to 115 |
| Cc1cc2cnn(CCO)c2cc1Nc1nnc2n1[C@H](c1ccc(F)cc1)COC2 | 215 to 217 |
| C=C(C)CC(OS(C)(=O)=O)C(Cl)(Cl)Cl (stereo unspecified) | 60 to 61 |
| N#CCOc1ccc(CCNC(=O)OCc2ccccc2)cc1 | 110 to 115 |
| O=C(NC/C=C\COc1cc(CN2CCCC2)ccn1)c1cn[nH]c1 | 57 to 61 |
| CCCCc1nc(Cl)c(CO)n1Cc1ccc(-c2cccc(C(=O)O)c2)cc1 | 180 to 181 |
| COc1ccc(CNC(=O)N(C)O)cc1OC | 132 to 133 |
| CC(C)(C)OC(=O)NCCNC(=O)c1cc(-c2ccccc2)c(=O)n2c1-c1ccccc1C2 | 238 to 240 |

| SMILES | melting point [°C] |
| --- | --- |
| Cc1c(CC(=O)N[C@@H](CO[N+](=O)[O-])C(=O)O)cc(-c2ccc(S(C)(=O)=O)cc2)n1-c1ccc(F)cc1 | 109 |
| CC(CC=O)P(=O)(O)CCCCc1ccccc1 (stereo unspecified) | 138 |
| C[C@H](C#Cc1cc(Cc2ccc(F)cc2)cs1)N(O)C(N)=O | 105 to 108 |
| CC(C)(C)OC(=O)NCC12CN(c3cc4c(cc3F)c(=O)c(C(=O)O)cn4C3CC3)CC1CCO2 (stereo unspecified) | 235 to 237 |
| COc1ccc(-c2cc(=O)n(CC3CC3)nc2-c2ccc(OC)c(F)c2)cc1F | 142 to 143 |
| CC(C)(C)OC(=O)N1CCN(C(=O)N2CC(=O)Nc3ccccc32)CC1 | 166 to 167 |
| C=CC(=O)OC(COc1ccc(C(=O)c2ccccc2)c(O)c1)COc1ccc(C(=O)c2ccccc2)c(O)c1 | 98 to 100 |
| Cn1c(=O)c(NC(=O)Nc2ccc(F)cc2F)c(-c2ccccc2Cl)c2cccnc21 | 225 to 226 |
| CCOc1cccc(-c2n[nH]c(-c3ccccc3C)n2)c1 | 84 to 86 |
| NC(=O)c1c(NC(=O)C2CC2)sc2c1CCCC2=O | 203 to 205 |
| Cc1sc(NS(=O)(=O)c2c(Cl)cc(Cl)cc2Cl)nc1CC(=O)N1CCOCC1 | 216 to 217 |
| OCc1cn2c(n1)CN=C(c1ccccc1)c1cc(C(F)(F)F)ccc1-2 | 193 to 194 |
| CSc1ccc(C(=O)CC(F)(F)F)cc1 | 118 to 120 |
| CN(C(=O)On1nc(Br)c(Br)c1Br)c1ccccc1 | 115 to 119 |
| CC1(C)Cc2c(ccc3c2C(c2cccc(-c4ccc(C(N)=O)cc4)c2)=NCC3(C)C)O1 | 284 to 296 |
| COc1cc2c(cc1OC)CCC(C(=O)N1CCN(C(=O)c3ccc(OC)c(OC)c3OC)CC1)=C2 | 166 to 167 |
| CN1CC(=O)Nc2cccnc2C1=O | 272 to 274 |
| CCOC(=O)c1cc(Oc2ccc3c(C(=O)O)cccc3c2)ncn1 | 211 to 212 |
| C=CC(c1ncc([N+](=O)[O-])n1C)N(C)C (stereo unspecified) | 110 to 113 |
| CCOc1ccc2c(c1)n(-c1ccccn1)c(=O)n2S(=O)(=O)c1ccc([N+](=O)[O-])cc1OC | 175 |
| COc1ccc(OC)c(Sc2nc3c(N)ncnc3n2CCC=C(C)C)c1 | 148 to 150 |
| CCOC(=O)CC[C@H](NC(=O)c1ccc(I)cc1)C(=O)OCC | 105 to 106 |
| CCOC(=O)C1=NN(c2ccc(Cl)cc2)C(c2ccc(Cl)cc2)C1 (stereo unspecified) | 128 to 130 |
